Experimental data: ChEMBL document CHEMBL1201862, “PubChem BioAssay data set” (2004)
Calls of active or inactive are those of the source.

Key:
[1] = P. falciparum late gametocyte killing, dose response, luminescence (AID 1117278); format: functional, cell-based;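 further: gametocytes exposed to compound for 24 hours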
[2] = Jurkat T cell cytotoxicity, dose response, cytotoxicity control for P. falciparum gametocyte viability project, luminescence (AID 1117277); format: functional, cell-based;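 further: potency reflects loss of cellular ATP meaning fewer viable cells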
[3] = target: Bifunctional protein GlmU (Mycobacterium tuberculosis, UniProt P9WMN3); assay: Inhibitors of Mycobacterial Glucosamine-1-phosphate acetyl transferase (GlmU). Secondary screen.; set-up: species or system Mycobacterium tuberculosis H37Rv
[4] = target: Sphingosine 1-phosphate receptor 2 (Homo sapiens, UniProt O95136); assay: Dose Response Cell Based Assay for Antagonists of the S1P2 Receptor. [Related pubchem assays: 856, 736 ]; format: functional
[5] = target: Mitogen-activated protein kinase 10 (Homo sapiens, UniProt P53779); assay: Dose response biochemical screening assay for inhibitors of c-Jun N-Terminal Kinase 3 (JNK3). [Related pubchem assays: 746 ]
[6] = target: E3 ubiquitin-protein ligase Mdm2 (Homo sapiens, UniProt Q00987); assay: enhancers of MDM2-luciferase reporter signal, concentration-effect titration, project on inhibitors of MDM2 ubiquitin ligase, cellular assay, luminescent readout, 384-well plate format (AID 1394); format: functional;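 further: MDM2 E3 inhibitors raise luminescence so EC50 is for signal enhancement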
[7] = target: T1, High affinity choline transporter 1 (Homo sapiens, UniProt Q9GZV3); assay: CHT inhibitors, dose response, cell-based, 5-point CRC, membrane potential dye (AID 504840); format: functional
T1 sequence (Q9GZV3 whole entry): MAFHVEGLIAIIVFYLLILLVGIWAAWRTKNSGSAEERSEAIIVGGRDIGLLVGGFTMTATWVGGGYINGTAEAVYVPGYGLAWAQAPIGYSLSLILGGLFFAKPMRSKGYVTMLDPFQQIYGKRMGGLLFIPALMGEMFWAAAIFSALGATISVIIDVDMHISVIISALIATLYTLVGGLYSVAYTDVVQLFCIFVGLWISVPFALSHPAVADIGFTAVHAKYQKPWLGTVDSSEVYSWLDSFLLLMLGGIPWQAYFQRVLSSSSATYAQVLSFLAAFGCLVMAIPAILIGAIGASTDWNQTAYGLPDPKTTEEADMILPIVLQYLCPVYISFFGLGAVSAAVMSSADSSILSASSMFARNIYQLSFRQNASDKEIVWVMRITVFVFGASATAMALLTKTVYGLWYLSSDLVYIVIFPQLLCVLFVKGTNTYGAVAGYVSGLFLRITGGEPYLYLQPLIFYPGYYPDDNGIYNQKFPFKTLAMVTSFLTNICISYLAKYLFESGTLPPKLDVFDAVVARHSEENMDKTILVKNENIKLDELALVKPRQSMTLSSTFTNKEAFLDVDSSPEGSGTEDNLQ

[8] = target: T1, High affinity choline transporter 1; assay: CHT inhibitors, dose response, cell-based, 10-point CRC, membrane potential dye (AID 588401); format: functional;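 further: membrane potential dye fluorescence of choline-evoked depolarization via CHT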
[9] = target: Nonstructural protein 1 (Influenza A virus, UniProt Q194T2); format: functional, Influenza A virus (A/California/07/2009(H1N1))
[10] = target: Matrix metalloproteinase-14 (Homo sapiens, UniProt P50281); assay: Dose Response confirmation of uHTS hits for a small molecule inhibitors of MT1-MMP activation in a fluorescence assay set 2.; format: functional
[11] = target: fMet-Leu-Phe receptor (Homo sapiens, UniProt P21462); assay: FPR ligands, dose response (AID 519); format: functional
[12] = target: T2, Corticotropin-releasing factor receptor 2/Corticotropin-releasing factor-binding protein (Homo sapiens, UniProt P24387+Q13324); assay: Dose Response confirmation of uHTS hits for small molecule antagonists of the CRF-binding protein and CRF-R2 receptor complex.; format: functional; conditions: read-out: IC50_Mean
T2 sequence (Q13324 whole entry): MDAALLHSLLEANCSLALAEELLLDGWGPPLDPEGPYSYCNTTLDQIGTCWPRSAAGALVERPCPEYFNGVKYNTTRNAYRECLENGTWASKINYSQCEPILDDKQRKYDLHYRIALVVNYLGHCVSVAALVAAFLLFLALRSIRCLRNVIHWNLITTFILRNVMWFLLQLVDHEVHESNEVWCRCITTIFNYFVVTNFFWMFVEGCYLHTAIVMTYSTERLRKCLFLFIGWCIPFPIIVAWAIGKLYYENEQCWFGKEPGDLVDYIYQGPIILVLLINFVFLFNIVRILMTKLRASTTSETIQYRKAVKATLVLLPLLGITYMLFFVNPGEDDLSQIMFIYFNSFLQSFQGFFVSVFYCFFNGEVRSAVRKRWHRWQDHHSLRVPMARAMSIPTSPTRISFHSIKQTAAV
T2 sequence (P24387 whole entry): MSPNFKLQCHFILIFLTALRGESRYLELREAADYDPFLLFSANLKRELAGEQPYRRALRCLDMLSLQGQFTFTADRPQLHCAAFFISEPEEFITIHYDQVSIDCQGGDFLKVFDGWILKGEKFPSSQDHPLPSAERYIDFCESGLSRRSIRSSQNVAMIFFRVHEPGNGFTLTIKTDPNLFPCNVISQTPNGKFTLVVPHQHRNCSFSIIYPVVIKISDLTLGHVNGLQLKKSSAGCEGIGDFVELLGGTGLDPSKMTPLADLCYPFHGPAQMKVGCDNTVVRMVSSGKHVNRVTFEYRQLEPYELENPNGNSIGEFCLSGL

[13] = target: T2, Corticotropin-releasing factor receptor 2/Corticotropin-releasing factor-binding protein; assay: activators of CRF receptor 2 with binding protein – uHTS hits, confirmation (AID 602473); format: functional; conditions: read-out: EC50_Mean
[14] = CRF-BP/CRF-R2 complex antagonists, dose response, cell-based, uHTS hits, 384-well (AID 651639); format: functional, Homo sapiens; conditions: read-out: IC50_Mean
[15] = target: Photoreceptor-specific nuclear receptor (Homo sapiens, UniProt Q9Y5X4); format: functional, cell-based;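 further: CHO-S cells with Gal4-NCOR and VP16-NR2E3 two-hybrid luciferase reporter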
[16] = target: Caspase-6 (Homo sapiens, UniProt P55212); assay: human caspase-6 inhibitors, dose response, biochemical, VEID-R110 fluorescence, cherry-pick (AID 720632)
[17] = system: HeLa; assay: HeLa cell cytotoxicity, dose response, cytotoxicity control, ATP luminescence, cherry-pick samples (AID 687004); format: functional, cell-based; conditions: Homo sapiens
[18] = target: Paired box protein Pax-8 (Homo sapiens, UniProt Q06710); assay: inhibitors of PAX8-driven TPO luciferase reporter, dose response, RMG-I cells, cherry-pick (AID 687027); format: functional, cell-based;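 further: luciferase reporter driven by Pax8 target thyroperoxidase promoter measured by SteadyGlo luminescence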
[19] = cytotoxicity in COV362 ovarian cancer cells, dose response, cytotoxicity control for PAX8 inhibitor project, cell-based, plate reader, dry powder, SA12 (AID 743144); format: functional
[20] = IOSE-T80 ovarian epithelial cell cytotoxicity, dose response, cytotoxicity control for PAX8 inhibitor project, plate reader, dry powder samples (AID 743045); format: functional, cell-based
[21] = A2780 ovarian cancer cell cytotoxicity, dose response, cytotoxicity control, plate reader, dry powder samples (AID 743046); format: functional, cell-based
[22] = inhibitors of PGC1a acetylation in cells, dose response, cell-based, cherry-picked samples (AID 720514); format: functional;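 further: potency may reflect raised or lowered acetylation signal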
[23] = NIH:OVCAR-3 ovarian cancer cell cytotoxicity, dose response, PAX8 inhibitor project, plate reader, dry powder samples (AID 743044); format: functional, cell-based
[24] = IGROV1 ovarian cancer cell cytotoxicity, dose response, PAX8 inhibitor project, plate reader, dry powder samples (AID 743043); format: functional, cell-based; conditions: IGROV-1
[25] = cytotoxicity in OVCAR4 cells, dose response, cytotoxicity control for PAX8 inhibitor project, cell-based, plate reader, dry powder, SA11 (AID 743150); format: functional; conditions: OVCAR-4
[26] = cytotoxicity in COV434 cells, dose response, cytotoxicity control for PAX8 inhibitor project, cell-based, plate reader, dry powder, SA7 (AID 743145); format: functional
[27] = cytotoxicity in OV-90 ovarian cancer cells, dose response, PAX8 inhibitor project, cell-based, plate reader, dry powder, SA8 (AID 743149); format: functional
[28] = non-specific cell cytotoxicity, dose response, cytotoxicity control for PAX8 inhibitor project, plate reader, dry powder samples (AID 743021); format: functional, cell-based
[29] = cytotoxicity in OVCAR8 ovarian cancer cells, dose response, PAX8 project, cell-based, plate reader, dry powder samples (AID 743197); format: functional; conditions: OVCAR-8
[30] = cytotoxicity dependent on PAX8, dose response, cell-based, plate reader, dry powder (AID 743049); format: functional

Sequence of Sphingosine 1-phosphate receptor 2 (O95136 whole entry): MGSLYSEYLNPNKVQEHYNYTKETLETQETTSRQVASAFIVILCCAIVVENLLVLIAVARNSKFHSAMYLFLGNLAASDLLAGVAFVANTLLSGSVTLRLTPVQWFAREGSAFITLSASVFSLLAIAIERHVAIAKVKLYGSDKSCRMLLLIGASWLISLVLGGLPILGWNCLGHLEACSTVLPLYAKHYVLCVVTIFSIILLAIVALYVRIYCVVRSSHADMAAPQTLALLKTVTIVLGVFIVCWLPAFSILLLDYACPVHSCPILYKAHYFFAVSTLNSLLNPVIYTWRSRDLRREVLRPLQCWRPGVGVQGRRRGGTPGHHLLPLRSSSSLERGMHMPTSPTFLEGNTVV
Sequence of Nonstructural protein 1 (Q194T2 whole entry): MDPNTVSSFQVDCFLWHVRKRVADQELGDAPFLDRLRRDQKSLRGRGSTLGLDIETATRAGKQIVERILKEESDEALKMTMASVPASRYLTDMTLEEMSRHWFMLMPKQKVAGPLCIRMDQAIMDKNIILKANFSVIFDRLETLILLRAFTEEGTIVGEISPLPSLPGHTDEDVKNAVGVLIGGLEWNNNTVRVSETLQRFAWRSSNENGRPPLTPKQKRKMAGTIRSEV
Sequence of fMet-Leu-Phe receptor (P21462 whole entry): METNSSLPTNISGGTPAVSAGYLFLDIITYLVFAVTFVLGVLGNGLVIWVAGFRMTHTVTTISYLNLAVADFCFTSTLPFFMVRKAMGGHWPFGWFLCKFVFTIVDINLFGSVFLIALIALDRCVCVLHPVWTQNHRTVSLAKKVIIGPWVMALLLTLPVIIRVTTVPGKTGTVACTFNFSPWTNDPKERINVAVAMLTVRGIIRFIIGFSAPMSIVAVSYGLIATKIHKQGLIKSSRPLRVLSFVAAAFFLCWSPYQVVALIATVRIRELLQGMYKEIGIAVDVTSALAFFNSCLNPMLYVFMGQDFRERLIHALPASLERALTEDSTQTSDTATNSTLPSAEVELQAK
Sequence of Mitogen-activated protein kinase 10 (P53779 whole entry): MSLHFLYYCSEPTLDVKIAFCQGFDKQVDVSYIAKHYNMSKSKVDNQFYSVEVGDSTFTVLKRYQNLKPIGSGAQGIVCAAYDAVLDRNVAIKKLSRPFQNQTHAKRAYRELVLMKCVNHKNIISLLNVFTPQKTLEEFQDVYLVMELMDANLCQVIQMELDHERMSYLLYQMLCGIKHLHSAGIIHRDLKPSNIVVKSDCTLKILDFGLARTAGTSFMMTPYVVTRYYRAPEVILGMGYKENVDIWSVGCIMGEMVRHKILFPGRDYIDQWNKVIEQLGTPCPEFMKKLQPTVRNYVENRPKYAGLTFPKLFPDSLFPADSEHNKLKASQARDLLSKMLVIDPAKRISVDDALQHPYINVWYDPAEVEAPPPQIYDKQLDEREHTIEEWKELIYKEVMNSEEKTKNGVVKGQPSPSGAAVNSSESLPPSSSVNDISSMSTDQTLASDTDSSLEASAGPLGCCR
Sequence of E3 ubiquitin-protein ligase Mdm2 (Q00987 whole entry): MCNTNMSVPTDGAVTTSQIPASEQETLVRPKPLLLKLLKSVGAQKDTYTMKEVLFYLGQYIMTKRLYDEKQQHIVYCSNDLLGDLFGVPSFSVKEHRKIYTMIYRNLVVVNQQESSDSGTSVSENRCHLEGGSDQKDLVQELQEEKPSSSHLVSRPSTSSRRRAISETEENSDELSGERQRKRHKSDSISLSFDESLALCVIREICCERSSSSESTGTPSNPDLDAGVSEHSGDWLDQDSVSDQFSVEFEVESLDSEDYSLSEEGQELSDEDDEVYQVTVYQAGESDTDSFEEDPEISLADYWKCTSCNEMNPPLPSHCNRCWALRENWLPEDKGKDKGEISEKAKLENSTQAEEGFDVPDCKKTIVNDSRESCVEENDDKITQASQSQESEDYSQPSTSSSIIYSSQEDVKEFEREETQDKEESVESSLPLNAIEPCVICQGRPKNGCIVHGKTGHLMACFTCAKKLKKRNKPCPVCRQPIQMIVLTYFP
Sequence of Bifunctional protein GlmU (P9WMN3 whole entry): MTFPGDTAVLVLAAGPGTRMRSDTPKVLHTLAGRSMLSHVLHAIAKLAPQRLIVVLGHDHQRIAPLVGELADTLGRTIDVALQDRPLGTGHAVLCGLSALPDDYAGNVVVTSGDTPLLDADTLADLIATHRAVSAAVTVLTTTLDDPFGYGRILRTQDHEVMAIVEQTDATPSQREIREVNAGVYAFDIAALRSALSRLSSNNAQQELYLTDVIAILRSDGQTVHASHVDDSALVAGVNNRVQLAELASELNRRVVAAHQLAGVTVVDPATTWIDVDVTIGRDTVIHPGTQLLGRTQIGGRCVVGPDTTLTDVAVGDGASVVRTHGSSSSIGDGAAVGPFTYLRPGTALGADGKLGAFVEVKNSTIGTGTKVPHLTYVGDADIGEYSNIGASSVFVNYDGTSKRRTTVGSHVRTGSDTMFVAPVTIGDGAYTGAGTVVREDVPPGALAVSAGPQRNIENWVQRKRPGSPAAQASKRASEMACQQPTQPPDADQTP
Sequence of Paired box protein Pax-8 (Q06710 whole entry): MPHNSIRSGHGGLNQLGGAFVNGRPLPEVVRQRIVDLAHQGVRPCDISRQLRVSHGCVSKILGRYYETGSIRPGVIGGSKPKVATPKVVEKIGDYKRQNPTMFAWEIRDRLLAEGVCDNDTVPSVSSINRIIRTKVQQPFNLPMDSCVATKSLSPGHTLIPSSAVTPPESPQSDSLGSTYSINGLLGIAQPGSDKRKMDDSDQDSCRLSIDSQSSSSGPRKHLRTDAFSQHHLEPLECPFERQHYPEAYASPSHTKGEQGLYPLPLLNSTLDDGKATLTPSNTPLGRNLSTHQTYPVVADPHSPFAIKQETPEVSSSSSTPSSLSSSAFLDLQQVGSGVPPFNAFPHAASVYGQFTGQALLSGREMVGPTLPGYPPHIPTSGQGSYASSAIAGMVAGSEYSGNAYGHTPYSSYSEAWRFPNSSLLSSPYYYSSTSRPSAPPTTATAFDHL
Sequence of Caspase-6 (P55212 24-179 limits assumed): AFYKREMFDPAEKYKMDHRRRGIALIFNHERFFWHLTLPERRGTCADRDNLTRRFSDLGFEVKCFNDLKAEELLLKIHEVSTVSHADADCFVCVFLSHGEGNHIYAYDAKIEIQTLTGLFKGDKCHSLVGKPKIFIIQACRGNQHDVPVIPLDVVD
Sequence of Caspase-6 (P55212 194-293 limits assumed): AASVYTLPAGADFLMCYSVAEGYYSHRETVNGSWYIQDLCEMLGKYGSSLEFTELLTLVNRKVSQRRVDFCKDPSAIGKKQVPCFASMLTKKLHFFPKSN
Sequence of Photoreceptor-specific nuclear receptor (Q9Y5X4 whole entry, the tested form may be a part): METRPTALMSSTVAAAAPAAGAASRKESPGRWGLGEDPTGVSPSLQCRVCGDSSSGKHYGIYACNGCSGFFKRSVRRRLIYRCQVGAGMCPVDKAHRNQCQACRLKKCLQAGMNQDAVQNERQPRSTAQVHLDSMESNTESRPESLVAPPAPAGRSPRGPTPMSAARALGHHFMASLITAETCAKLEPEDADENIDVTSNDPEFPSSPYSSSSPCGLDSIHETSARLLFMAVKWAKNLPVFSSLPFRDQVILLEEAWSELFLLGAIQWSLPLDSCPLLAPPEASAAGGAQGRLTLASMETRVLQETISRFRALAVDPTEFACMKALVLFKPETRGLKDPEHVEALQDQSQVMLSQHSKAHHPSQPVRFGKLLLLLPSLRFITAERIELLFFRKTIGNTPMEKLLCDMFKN

Cc1nccc(O)c1OCc1ccc(Cl)cc1
IC50 [1]: > 109 µM (inactive) | IC50 [2]: > 83.3 µM (inactive)

Cc1nc(Nc2ccc(C(=O)O)cc2)nc(Nc2ccc(C(=O)O)cc2)c1[N+](=O)[O-]
IC50 [3]: 211 µM (active)

O=C(Nc1ccc(F)cc1)c1sc(-c2ccccc2)nc1C(F)(F)F
IC50 [4]: > 30 µM (not active)

CC(=O)Oc1ccc(C(=O)Nc2nccs2)cc1
IC50 [5]: > 31 µM (not active)

CCOC(=O)c1sc(=S)n(-c2ccccc2)c1N(C(C)=O)C(C)=O
EC50 [6]: 0.29 µM (not active) | IC50 [7]: 8.98 µM (active) | IC50 [8]: 5.01 µM (active)

CCN1C(=O)/C(=C2\C=Cc3ccccc3N2CC)SC1=S
IC50 [9]: 4.15 µM (active) | IC50 [10]: > 80 µM (inactive)

C=CCn1c(O)cc(=O)nc1SCCCC
Ki [11]: 30.3 µM (inactive)

CC(C)c1ccc(C(c2c(O)oc3ccccc3c2=O)c2c(O)oc3ccccc3c2=O)cc1
IC50 [12]: 3.45 µM (active) | EC50 [13]: > 53 µM (inactive) | IC50 [14]: 5.18 µM (active) | IC50 [15]: 0.975 µM (active) | AC50 [16]: 6.05 µM (active)

CC(C)NC(=O)Nc1ccc2c(c1)CC(=O)N([C@H](C)CO)C[C@H](C)[C@H](CN(C)S(=O)(=O)c1ccc(Cl)cc1)O2
AC50 [17]: 37.9 µM (active)

CN(C[C@H]1N[C@@H](CO)[C@@H]1c1ccc(C2=CCCC2)cc1)C(=O)c1cccc(F)c1
AC50 [18]: 2.47 µM (active) | AC50 [19]: 3.98 µM (active) | AC50 [20]: 3.44 µM (active) | AC50 [21]: 11.3 µM (active) | AC50 [22]: 0.298 µM (active) | AC50 [23]: 4.55 µM (active) | AC50 [24]: 6.12 µM (active) | AC50 [25]: 1.37 µM (active) | AC50 [26]: 6.6 µM (active) | AC50 [27]: 7.38 µM (active) | AC50 [28]: 26 µM (active) | AC50 [29]: 3.4 µM (active) | AC50 [30]: 3.86 µM (active)
